Results: patent publication US20140249095A1, “Method for Inhibiting Spinocerebellar Ataxia” (National Normal University, priority 2013, published 2014)

Tests used:
[1] = system: ATXN3/Q75 aggregation in 293 ATXN3/Q75-GFP cells; experiment: ATXN3/Q75 aggregation assay on 293 cell model; type: cell-based, human; conditions: for ATXN3/Q75 aggregation as compared to untreated cells: 293 ATXN3/Q75-GFP cells, doxycycline and oxaliplatin 6 days; for IC50 cytotoxicity/effective dose ratio: effective dose = reduced the ATXN3/Q75 aggregation to 85% or lower
Method: (§1) The cloned pcDNA5/FRT/TO-ATXN3/Q14 and Q75 plasmids were used to generate the isogenic ATXN3/Q14˜75 cell lines by targeting insertion into Flp-In™-293 cells. These cell lines were grown in medium containing 5 μg/mL blasticidin and 100 μg/mL hygromycin (InvivoGen). In addition, human SH-SYSY-derived Flp-In host cell line was constructed as described, and the SH-SYSY host cells were used to generate isogenic ATXN3/Q14˜75 lines and maintained as described above. ATXN3/Q75 Aggregation Assay
Then, doxycycline (10 μg/mL, BD) was added to the medium in each well to induce ATXN3/Q75-GFP expression for 6 days.
In the present example, the influences of the P. lactiflora extract and paeoniflorin in the ATXN3/Q75-GFP cells were respectively examined.

in vitro [2] = conditions: human
Method: (§2) Cells were cultivated at 37° C. incubator containing 5% CO2 and cell proliferation was measured based upon the reduction of the tetrazolium salt, 3,[4,5-dimethylthiazol-2-yl]-2,5-diphenyl-tetrazolium bromide (MTT). Cells were plated into 48-well (5×10^4/well) dishes, grown for 20 hours and treated with different concentrations of the P. lactiflora extract (5˜30 mg/mL) or pure compound (100 nM˜1 mM). After one day, 20 μL MTT (5 mg/mL in PBS, Sigma) was added to cells and incubated for 2 hours. The absorbance of the purple formazan dye was measured at 570 nm by a Bio-Tek μQuant Universal Microplate Spectrophotometer.

in vitro [3] = conditions: human; remark: listed apart in the source
Method: as §2

[4] = system: ATXN3/Q75 aggregation in SH-SY5Y ATXN3/Q75-GFP cells; experiment: ATXN3/Q75 aggregation assay on SH-SY5Y cell model; type: cell-based, human; conditions: paeoniflorin 100 nM; retinoic acid differentiated SH-SY5Y ATXN3/Q75-GFP cells, 6 days
Method: as §1

Method for HEK-293 cells: as §2
Method for SH-SY5Y cells: as §2

Structure (SMILES)	ATXN3/Q75 aggregation as compared to untreated cells ([1]; at 100 nM) [%]	IC50 (SH-SY5Y cells) [µM]	IC50 (HEK-293 cells) [µM]	ATXN3/Q75 aggregation as compared to untreated cells ([1]; at 5 μM) [%]	IC50 cytotoxicity/effective dose ratio [1]	IC50 at 24 h (in vitro [2]) [µM]	IC50 at 24 h (in vitro [3]) [µM]	aggregation reduction in ATXN3/Q75 expressed neuronal cells [4] [%]
O=C(CCCCCCC(=O)Nc1ccccc1)NO [SAHA, suberoylanilide hydroxamic acid, reference compound]	85	–	–	–	–	–	–	–
C[C@]12C[C@@H](O)[C@@H]3C[C@@]1(O[C@@H]1O[C@H](CO)[C@@H](O)[C@H](O)[C@H]1O)[C@@]3(COC(=O)c1ccccc1)C(=O)O2 [albiflorin]	–	> 1000	> 1000	78	> 200	–	–	–
C[C@@]12C[C@@]3(O)O[C@@H](O1)[C@]1(COC(=O)c4ccccc4)[C@H]3C[C@@]12O[C@@H]1O[C@H](CO)[C@@H](O)[C@H](O)[C@H]1O [paeoniflorin]	73	–	–	–	> 10000	> 1000	> 1000	21
